Data reported in PubChem BioAssay AID192 (DTP/NCI, 2004).
Values joined by “and” are separate entries in the source; they are usually repeats but may differ in a detail not shown here. Equal values may be shown once. Toxic doses and inconclusive results are not listed.

Tested on: BDF1 mice, B16 melanoma ip, median survival T/C
Assay: NCI In Vivo Anticancer Drug Screen. Data for tumor model B16 Melanoma (intraperitoneal) in B6D2F1 (BDF1) mice
Conditions: endpoint: median survival time, higher = longer survival
In short: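 Each result divides a survival or tumor-size measurement in the compound-treated group by the same measurement in the vehicle group.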

[1] = dose: 12.5 mg/kg/injection, schedule: Q01DX009 (ip), vehicle: Klucel (hydroxypropylcellulose) (HPC)
[2] = dose: 100.0 mg/kg/injection, schedule: Q01DX009 (ip), vehicle: Klucel (hydroxypropylcellulose) (HPC)
[3] = dose: 200.0 mg/kg/injection, schedule: Q01DX009 (ip), vehicle: Klucel (hydroxypropylcellulose) (HPC)
[4] = dose: 25.0 mg/kg/injection, schedule: Q01DX009 (ip), vehicle: Klucel (hydroxypropylcellulose) (HPC)
[5] = dose: 50.0 mg/kg/injection, schedule: Q01DX009 (ip), vehicle: Klucel (hydroxypropylcellulose) (HPC)
[6] = dose: 25.0 mg/kg/injection, schedule: Q01DX009 (ip), vehicle: saline with Tween-80
[7] = dose: 50.0 mg/kg/injection, schedule: Q01DX009 (ip), vehicle: saline with Tween-80
[8] = dose: 100.0 mg/kg/injection, schedule: Q01DX009 (ip), vehicle: saline with Tween-80
[9] = dose: 12.5 mg/kg/injection, schedule: Q01DX009 (ip), vehicle: saline with Tween-80

In the case of COC(CBr)c1ccccc1 (configuration not stated), the T/C (dose: 3.12 mg/kg/injection, schedule: Q01DX009 (ip), vehicle: Klucel (hydroxypropylcellulose) (HPC)) is reported as 102 % of control, the T/C (dose: 6.25 mg/kg/injection, schedule: Q01DX009 (ip), vehicle: Klucel (hydroxypropylcellulose) (HPC)) is reported as 104 % of control and the T/C (dose: 10.0 mg/kg/injection, schedule: Q04DX003 (ip), vehicle: Klucel (hydroxypropylcellulose) (HPC)) is reported as 97 % of control. For the same compound, the T/C [1] was 92 % of control, the T/C (dose: 20.0 mg/kg/injection, schedule: Q04DX003 (ip), vehicle: Klucel (hydroxypropylcellulose) (HPC)) was 87 % of control and the T/C (dose: 40.0 mg/kg/injection, schedule: Q04DX003 (ip), vehicle: Klucel (hydroxypropylcellulose) (HPC)) was 87 % of control.

For CCC(CC)(COS(=O)(=O)c1ccc(C)cc1)COS(=O)(=O)c1ccc(C)cc1, the T/C [2] was 100 % of control, the T/C [3] was 93 % of control and the T/C (dose: 400.0 mg/kg/injection, schedule: Q01DX009 (ip), vehicle: Klucel (hydroxypropylcellulose) (HPC)) was 93 % of control.

O=C(Nc1cc(C(F)(F)F)ccc1Cl)c1cccc(C(=O)Nc2cc(C(F)(F)F)ccc2Cl)c1 was tested, and the T/C [1] was 101 % of control, the T/C [4] was 101 % of control and the T/C [5] was 101 % of control.

In the case of C[C@@H]1CC2=CC(=O)CC[C@@H]2[C@H]2CC[C@@]3(C)[C@@H](CC[C@]3(C)O)[C@@H]21, the T/C [6] is reported as 102 % of control, the T/C [7] is reported as 92 % of control and 113 % of control and the T/C [8] is reported as 97 % of control and 108 % of control.

With O=P(CCCCCCP(=O)(N1CC1)N1CC1)(N1CC1)N1CC1 the T/C [2] was 176 % of control.

CCCCCCCCSCCO was tested, and the T/C [9] was 102 % of control and the T/C [6] was 97 % of control.

O=C(O)c1cc(O)ccc1O was tested, and the T/C (dose: 25.0 mg/kg/injection, schedule: Q01DX009 (ip), vehicle: saline) was 93 % of control, the T/C (dose: 50.0 mg/kg/injection, schedule: Q01DX009 (ip), vehicle: saline) was 100 % of control and the T/C (dose: 100.0 mg/kg/injection, schedule: Q01DX009 (ip), vehicle: saline) was 102 % of control. The T/C (dose: 200.0 mg/kg/injection, schedule: Q01DX009 (ip), vehicle: saline) was 98 % of control.

CS(=O)(=O)Nc1ccc(Nc2c3ccccc3nc3cc(Cl)ccc23)cc1 was tested, and the T/C (dose: 3.0 mg/kg/injection, schedule: Q01DX009 (ip), vehicle: saline with Tween-80) was 152 % of control, the T/C (dose: 37.5 mg/kg/injection, schedule: Q01DX001 (ip), vehicle: saline sonified) was 169 % of control and the T/C (dose: 75.0 mg/kg/injection, schedule: Q01DX001 (ip), vehicle: saline sonified) was 152 % of control.

In the case of COC1NC(=O)NC(=O)C1=[N+]=[N-] (configuration not stated), the T/C (dose: 2.0 mg/kg/injection, schedule: Q01DX009 (ip), vehicle: water) is reported as 112 % of control.

For Clc1ccc(COC(Cn2ccnc2)c2ccc(Cl)cc2Cl)c(Cl)c1 (configuration not stated), the T/C [4] was 106 % of control, the T/C [5] was 115 % of control and the T/C [2] was 96 % of control. The T/C [3] was 106 % of control.

For CC(C)(C)OC(=O)NC(CCC(N)=O)C(=O)ON1C(=O)CCC1=O (configuration not stated), the T/C [7] was 100 % of control, the T/C [8] was 93 % of control and the T/C (dose: 200.0 mg/kg/injection, schedule: Q01DX009 (ip), vehicle: saline with Tween-80) was 97 % of control. For the same compound, the T/C (dose: 400.0 mg/kg/injection, schedule: Q01DX009 (ip), vehicle: saline with Tween-80) was 86 % of control.

For O=C(Nc1ccc(F)cc1)NC1CCCCC1, the T/C [2] was 87 % of control and the T/C [3] was 100 % of control.

In the case of Cc1ccc2[nH]c(=O)oc(=O)c2c1, the T/C (dose: 50.0 mg/kg/injection, schedule: Q04DX003 (ip), vehicle: Klucel (hydroxypropylcellulose) (HPC)) is reported as 98 % of control, the T/C (dose: 100.0 mg/kg/injection, schedule: Q04DX003 (ip), vehicle: Klucel (hydroxypropylcellulose) (HPC)) is reported as 96 % of control and the T/C (dose: 200.0 mg/kg/injection, schedule: Q04DX003 (ip), vehicle: Klucel (hydroxypropylcellulose) (HPC)) is reported as 93 % of control.

For Cc1ccc2c(ccc(/C=C/c3ccc(O)c4ncccc34)[n+]2C)c1, the T/C [9] was 113 % of control and the T/C [6] was 103 % of control.

For Fc1ccc(/C=C2/c3cc(Cl)ccc3-c3c(Cl)cc(Cl)cc32)cc1, the T/C (dose: 6.25 mg/kg/injection, schedule: Q01DX009 (ip), vehicle: saline with Tween-80) was 90 % of control, the T/C [9] was 90 % of control and the T/C [6] was 95 % of control.

With C[n+]1cccc(NC(=O)c2ccc(NC(=O)c3ccc(C(=O)Nc4ccc(NC(=N)N)cc4)cc3)cc2)c1 the T/C (dose: 0.9 mg/kg/injection, schedule: Q01DX009 (ip), vehicle: saline) was 102 % of control, the T/C (dose: 1.3 mg/kg/injection, schedule: Q01DX009 (ip), vehicle: saline) was 94 % of control and the T/C (dose: 2.0 mg/kg/injection, schedule: Q01DX009 (ip), vehicle: saline) was 116 % of control.
